Activity calls are given as the source filed them. No cut-off for these calls is given here.
Experiments:
MDA-MB-231 [1] = assay: Cytotoxicity against human MDA-MB-231 cells by MTT assay; type: functional, cell-based
MCF7 [2] = assay: Potency index, ratio of etoposide IC50 to compound IC50 for human MCF7 cells; type: functional
MDA-MB-231 [3] = assay: Induction of apoptosis in human MDA-MB-231 cells assessed as early apoptotic cells at IC50 after 12 hrs by annexin V-FITC/propidium iodide staining-based flow cytometric analysis (reference value: 3.82%); type: functional
MDA-MB-231 [4] = assay: Induction of apoptosis in human MDA-MB-231 cells assessed as viable cells at IC50 after 12 hrs by annexin V-FITC/propidium iodide staining-based flow cytometric analysis (reference value: 95.2%); type: functional
MDA-MB-231 [5] = assay: Potency index, ratio of etoposide IC50 to compound IC50 for human MDA-MB-231 cells; type: functional
MCF7 [6] = assay: Cytotoxicity against human MCF7 cells by MTT assay; type: functional, cell-based
T47D [7] = assay: Cytotoxicity against human T47D cells by MTT assay; type: functional, cell-based
MDA-MB-231 [8] = assay: Induction of apoptosis in human MDA-MB-231 cells assessed as necrotic cells at IC50 after 12 hrs by annexin V-FITC/propidium iodide staining-based flow cytometric analysis (reference value: 0.97%); type: functional
MCF7 [9] = assay: Induction of apoptosis in human MCF7 cells assessed as early apoptotic cells at IC50 after 12 hrs by annexin V-FITC/propidium iodide staining-based flow cytometric analysis (reference value: 2.49%); type: functional
T47D [10] = assay: Potency index, ratio of etoposide IC50 to compound IC50 for human T47D cells; type: functional
MDA-MB-231 [11] = assay: Induction of apoptosis in human MDA-MB-231 cells assessed as change in morphology at IC50 after 24 hrs by acridine orange/ethidium bromide staining-based fluorescence microscopic analysis; type: functional, cell-based
MCF7 [12] = assay: Induction of apoptosis in human MCF7 cells assessed as viable cells at IC50 after 12 hrs by annexin V-FITC/propidium iodide staining-based flow cytometric analysis (reference value: 97.23%); type: functional
MCF7 [13] = assay: Induction of apoptosis in human MCF7 cells assessed as late apoptotic cells at IC50 after 12 hrs by annexin V-FITC/propidium iodide staining-based flow cytometric analysis relative to control; type: functional
MDA-MB-231 [14] = assay: Induction of apoptosis in human MDA-MB-231 cells assessed as late apoptotic cells at IC50 after 12 hrs by annexin V-FITC/propidium iodide staining-based flow cytometric analysis (reference value: 0.01%); type: functional
MCF7 [15] = assay: Induction of apoptosis in human MCF7 cells assessed as necrotic cells at IC50 after 12 hrs by annexin V-FITC/propidium iodide staining-based flow cytometric analysis (reference value: 0.29%); type: functional
MCF7 [16] = assay: Induction of apoptosis in human MCF7 cells assessed as change in morphology at IC50 after 24 hrs by acridine orange/ethidium bromide staining-based fluorescence microscopic analysis; type: functional, cell-based

SMILES	IC50 (MDA-MB-231 [1]) [µM]	IC50 (MCF7 [6]) [µM]	IC50 (T47D [7]) [µM]	further results
CCC(C)n1c(-c2ccccc2/C=C/c2ccccc2)nc2ccccc2c1=O (stereo not drawn)	4.9	3.8	3.6	Ratio IC50 (MCF7 [2]): 2; Activity (MDA-MB-231 [3]): 16.55%; Activity (MDA-MB-231 [4]): 80.2%; Ratio IC50 (MDA-MB-231 [5]): 2; Activity (MDA-MB-231 [8]): 0.97%; Activity (MCF7 [9]): 26.45%; Ratio IC50 (T47D [10]): 2; Activity (MDA-MB-231 [11]): Active; Activity (MCF7 [12]): 69.46%; Activity (MCF7 [13]): 1.95%; Activity (MDA-MB-231 [14]): 2.27%; Activity (MCF7 [15]): 2.14%; Activity (MCF7 [16]): Active
COc1ccc(-n2c(-c3ccccc3/C=C/c3ccccc3)nc3ccccc3c2=O)cc1	> 100	> 100	> 100	–
C=CCn1c(-c2ccccc2/C=C/c2ccccc2)nc2ccccc2c1=O	4.1	10.3	5.8	–
Cc1ccc(Cn2c(-c3ccccc3/C=C/c3ccccc3)nc3ccccc3c2=O)cc1	23.8	24.7	28.2	–
COc1cc([C@@H]2c3cc4c(cc3[C@@H](O[C@@H]3O[C@@H]5CO[C@@H](C)O[C@H]5[C@H](O)[C@H]3O)[C@H]3COC(=O)[C@H]23)OCO4)cc(OC)c1O [ETOPOSIDE]	10.3	–	8.9	Activity (MDA-MB-231 [3]): 22.41%; Activity (MDA-MB-231 [4]): 76.53%; Activity (MDA-MB-231 [8]): 0.27%; Activity (MCF7 [9]): 36.92%; Activity (MCF7 [12]): 62.89%; Activity (MCF7 [13]): 0.08%; Activity (MDA-MB-231 [14]): 0.8%; Activity (MCF7 [15]): 0.1%
CCn1c(-c2ccccc2/C=C/c2ccccc2)nc2ccccc2c1=O	8.4	8.7	10.2	–
O=c1c2ccccc2nc(-c2ccccc2/C=C/c2ccccc2)n1-c1ccccc1	> 100	44.9	> 100	–
CC(C)n1c(-c2ccccc2/C=C/c2ccccc2)nc2ccccc2c1=O	8.4	6.7	6.2	–
CCCn1c(-c2ccccc2/C=C/c2ccccc2)nc2ccccc2c1=O	> 100	29.4	> 100	–
CC(C)Cn1c(-c2ccccc2/C=C/c2ccccc2)nc2ccccc2c1=O	6.9	23.3	9.3	–
O=c1c2ccccc2nc(-c2ccccc2/C=C/c2ccccc2)n1Cc1ccccc1	> 100	> 100	> 100	–
O=c1c2ccccc2nc(-c2ccccc2/C=C/c2ccccc2)n1C1CCCC1	> 100	> 100	> 100	–
O=c1c2ccccc2nc(-c2ccccc2/C=C/c2ccccc2)n1C1CC1	5.5	5.3	6.8	Activity (MDA-MB-231 [3]): 22.41%; Activity (MDA-MB-231 [4]): 70.13%; Activity (MDA-MB-231 [8]): 4.37%; Activity (MCF7 [9]): 25.88%; Activity (MDA-MB-231 [11]): Active; Activity (MCF7 [12]): 72.75%; Activity (MCF7 [13]): 0.77%; Activity (MDA-MB-231 [14]): 3.09%; Activity (MCF7 [15]): 0.59%; Activity (MCF7 [16]): Active
COc1ccc(Cn2c(-c3ccccc3/C=C/c3ccccc3)nc3ccccc3c2=O)cc1	> 100	> 100	> 100	–
Cc1ccc(-n2c(-c3ccccc3/C=C/c3ccccc3)nc3ccccc3c2=O)cc1	> 100	> 100	> 100	–
CCCCn1c(-c2ccccc2/C=C/c2ccccc2)nc2ccccc2c1=O	4	9.8	7.9	–

— ChEMBL document CHEMBL3414466, “Synthesis and anticancer activity of N-substituted 2-arylquinazolinones bearing trans-stilbene scaffold” (Eur J Med Chem, 2015)
